Laboratory results taken from patent publication US11986452B2, “Methods of reducing the risk of heart failure” (Amarin Pharmaceuticals Ireland Limited, priority 2021, dated 2024).

What was measured:
[1] = system: TG, non-HDL-C, LDL-C, HDL-C, Apo B, hsCRP; experiment: REDUCE-IT fasting lipid profile and biomarker assays over time; format: in vivo, human; details: for Apo B between group difference vs placebo, median % change from baseline / Apo B between group difference vs placebo, median absolute change from baseline / HDL-C between group difference vs placebo, median % change from baseline / HDL-C between group difference vs placebo, median absolute change from baseline / LDL-C Hopkins between group difference vs placebo, median % change from baseline / LDL-C Hopkins between group difference vs placebo, median absolute change from baseline / LDL-C derived between group difference vs placebo, median % change from baseline / LDL-C derived between group difference vs placebo, median absolute change from baseline / Log hsCRP between group difference vs placebo, median absolute change from baseline / Non-HDL-C between group difference vs placebo, median % change from baseline / Non-HDL-C between group difference vs placebo, median absolute change from baseline / Triglycerides between group difference vs placebo, median absolute change from baseline / hsCRP between group difference vs placebo, median absolute change from baseline: ITT
Description: Fasting Lipid Profile: The fasting lipid panel included: TG, TC, LDL-C, HDL-C, non-HDL-C, and VLDL-C. At all visits, LDL-C was calculated using the Friedewald equation. At Visit 1 and Visit 1.1 direct LDL-C were used if at the same visit TG>400 mg/dL (4.52 mmol/L). These LDL-C values were used for the evaluation of the LDL-C inclusion criterion (LDL-C qualifying measurements for randomization) and for the assessment of changes in the statin therapy when LDL-C was not at goal. […] In addition, irrespective of the TG levels, at Visit 2 (0 Months of Follow-up, baseline) and at Visit 4 (12 Months of Follow-up), LDL-C were measured by preparative ultracentrifugation. These preparative ultracentrifugation LDL-C measurements were used in the statistical analysis including the calculation of the percent change from baseline (1 year versus baseline). Hopkins LDL-C was calculated for each visit.
Biomarkers Assays: The biomarker assays included: hsCRP, Apo B and hsTnT.
The fasting lipid panel was tested at Screening (Visit 1 or Visit 1.1), Randomization visit (Visit 2; Day 0), Visit 3 (Day 120; ˜4 Months) and all other follow-up visits including the last visit. For change from baseline to 1 year preparative ultracentrifugation measurements for LDL-C were analyzed, unless this value was missing. If the LDL-C preparative ultracentrifugation values were missing, then another LDL-C value was used, with prioritization of values obtained from LDL-C Direct measurements, followed by LDL-C derived by the Friedewald calculation (only for subjects with TG<400 mg/dL), and finally LDL-C derived using the calculation published by Hopkins University investigators (Martin S S, Blaha M J, Elshazly M B, et al. Comparison of a novel method vs the Friedewald equation for estimating low-density lipoprotein cholesterol levels from the standard lipid profile. JAMA. 2013; 310:2061-8.). In addition, change from baseline to day 120 in LDL-C utilizing Friedewald's and Hopkins methods was analyzed, using the arithmetic mean of LDL-C obtained at Visit 2 (Day 0) and the preceding Visit 1 (or Visit 1.1). If one of these values was missing, the single available LDL-C value was used. LDL-C according to Hopkins was calculated at each visit.
The randomization visit was considered Baseline. If a baseline value was not available from the randomization visit, then the latest screening value was used. For measurements of lipids, lipoproteins and inflammatory markers, the change and the percent change were summarized at each visit. Since these biomarkers are typically not normally distributed, the Wilcoxon rank-sum test was used for treatment comparisons of the percent change from baseline, and medians and quartiles were provided for each treatment group. The medians of the differences between the treatment groups and 95% CIs were estimated with the Hodges-Lehmann method. In addition, shift-tables were generated as appropriate.

[2] = system: statin-treated patients with established atherosclerosis or diabetes plus risk factor; experiment: Example 2: recurrent and total ischemic events analysis (Andersen-Gill, Wei-Lin-Weissfeld); format: in vivo, human; details: for Total key secondary endpoint events: HR vs placebo: without adjustment for stratification differences
Description: The following study was a multi-center, placebo-controlled clinical trial the details of which are described above in Example 1, the REDUCE-IT design. […] Randomization was stratified by cardiovascular risk cohort (i.e., secondary or primary prevention), use of ezetimibe, and by geographic region.
The primary outcome for the study was total recurrent events consisting of the composite of cardiovascular death, nonfatal myocardial infarction, nonfatal stroke, coronary revascularization, or hospitalization for unstable angina. Recurrent event analyses were also performed for the key secondary endpoint, a composite of cardiovascular death, non-fatal myocardial infarction, or non-fatal stroke. For each of these composite endpoints, the effects of icosapent ethyl in the secondary and primary prevention strata were examined separately.
Demographic and baseline disease characteristics are presented using frequencies and percentages for categorical variables and medians with interquartile ranges for continuous variables. Between treatment group comparisons were derived using the chi-square test for categorical variables and Wilcoxon rank test for continuous variables. All clinical endpoint events used in the efficacy analyses were adjudicated by an independent Clinical Endpoint Committee (CEC) who were blinded to the treatment assignment. Since the primary efficacy endpoint was the time from randomization to the first occurrence of any component of the composite endpoint, and recurrence of such events within each patient is possible, a pre-specified analysis using a Cox proportional-hazard with the counting-process formulation of Andersen and Gill was performed to model the first and all recurrent cardiovascular events. Hazard ratios (HR) and corresponding 95% confidence intervals (CI) are reported from this model. In addition, as a marginal model and an extension of survival models based on the Cox proportional hazard model, the modified Wei-Lin-Weissfeld (WLW) method for analysis of recurrent events in the presence of deaths was carried out as a supportive analysis. In addition, as pre-specified, a recurrent event analysis using the Andersen-Gill and Wei-Lin-Weissfeld methods were carried out for the individual primary event components other than CV death. Though not pre-specified, additional recurrent event analyses were performed for the key secondary endpoint, which is a composite of CV death, non-fatal MI, or non-fatal stroke, and for the primary endpoint and the key secondary endpoint in the primary and secondary prevention strata to explore further the consistency of clinical benefit of icosapent ethyl. In subgroup analyses of the two cardiovascular risk strata (i.e., primary and secondary prevention), site-level discrepancies in cardiovascular risk group assignment occurring at entry and detected during the study (1.8%) were adjusted to conform with documented medical history data prior to randomization. All efficacy analyses were performed according to the intention-to-treat principle. All tests were based on a 2-sided nominal significance level of 5% with no adjustments for multiple comparisons.

For `CC/C=C\C/C=C\C/C=C\C/C=C\C/C=C\CCCC(=O)OCC` [icosapent ethyl, eicosapentaenoic acid ethyl ester], the “Apo B between group difference vs placebo, median % change from baseline” value ([1]; Last Visit) was −6.7%, the “Apo B between group difference vs placebo, median absolute change from baseline” value ([1]; Last Visit) was -5.0 mg/dL and the “HDL-C between group difference vs placebo, median % change from baseline” value ([1]; Last Visit) was −3.0%. The “HDL-C between group difference vs placebo, median absolute change from baseline” value ([1]; Last Visit) was -1.0 mg/dL, the “LDL-C Hopkins between group difference vs placebo, median % change from baseline” value ([1]; Last Visit) was −7.4% and the “LDL-C Hopkins between group difference vs placebo, median absolute change from baseline” value ([1]; Last Visit) was -6.2 mg/dL. For the same compound, the “LDL-C derived between group difference vs placebo, median % change from baseline” value ([1]; Last Visit) was −6.6%, the “LDL-C derived between group difference vs placebo, median absolute change from baseline” value ([1]; Last Visit) was -5.0 mg/dL and the “Log hsCRP between group difference vs placebo, median absolute change from baseline” value ([1]; Last Visit) was −0.4 mg/L. The “Non-HDL-C between group difference vs placebo, median % change from baseline” value ([1]; Last Visit) was −8.6%, the “Non-HDL-C between group difference vs placebo, median absolute change from baseline” value ([1]; Last Visit) was -10.0 mg/dL and the “Triglycerides between group difference vs placebo, median absolute change from baseline” value ([1]; Last Visit) was -32.0 mg/dL. The “hsCRP between group difference vs placebo, median absolute change from baseline” value ([1]; Last Visit) was -0.8 mg/L, the “HDL-C between group difference vs placebo, median % change from baseline” value ([1]; Month 4) was −7.2% and the “HDL-C between group difference vs placebo, median absolute change from baseline” value ([1]; Month 4) was -3.0 mg/dL. For the same compound, the “LDL-C Hopkins between group difference vs placebo, median absolute change from baseline” value ([1]; Month 4) was -8.7 mg/dL, the “Apo B median value” ([1]; Year 1 (Table 18)) was 80.0 mg/dL and the hsCRP median value ([1]; Year 1 (Table 18)) was 1.8 mg/L. For the same compound, the “HDL-C between group difference vs placebo, median % change from baseline” value ([1]; Year 1) was −6.3%, the “HDL-C between group difference vs placebo, median absolute change from baseline” value ([1]; Year 1) was -2.5 mg/dL and the “LDL-C Hopkins between group difference vs placebo, median absolute change from baseline” value ([1]; Year 1) was -9.6 mg/dL. For the same compound, the “LDL-C derived between group difference vs placebo, median % change from baseline” value ([1]; Year 1) was −6.6%, the “LDL-C derived between group difference vs placebo, median absolute change from baseline” value ([1]; Year 1) was -5.0 mg/dL and the “Apo B between group difference vs placebo, median % change from baseline” value ([1]; Year 2) was −9.7%. For the same compound, the “Apo B between group difference vs placebo, median absolute change from baseline” value ([1]; Year 2) was -8.0 mg/dL, the “HDL-C between group difference vs placebo, median % change from baseline” value ([1]; Year 2) was −4.6% and the “HDL-C between group difference vs placebo, median absolute change from baseline” value ([1]; Year 2) was -2.0 mg/dL. For the same compound, the “LDL-C Hopkins between group difference vs placebo, median absolute change from baseline” value ([1]; Year 2) was -9.4 mg/dL, the “Log hsCRP between group difference vs placebo, median absolute change from baseline” value ([1]; Year 2) was −0.4 mg/L and the “hsCRP between group difference vs placebo, median absolute change from baseline” value ([1]; Year 2) was -0.9 mg/L. For the same compound, the “HDL-C between group difference vs placebo, median % change from baseline” value ([1]; Year 3) was −3.8%, the “HDL-C between group difference vs placebo, median absolute change from baseline” value ([1]; Year 3) was -1.5 mg/dL and the “LDL-C Hopkins between group difference vs placebo, median absolute change from baseline” value ([1]; Year 3) was -8.7 mg/dL. For the same compound, the “HDL-C between group difference vs placebo, median % change from baseline” value ([1]; Year 4) was −3.9%, the “HDL-C between group difference vs placebo, median absolute change from baseline” value ([1]; Year 4) was -1.5 mg/dL and the “LDL-C Hopkins between group difference vs placebo, median absolute change from baseline” value ([1]; Year 4) was -8.9 mg/dL. The “Non-HDL-C between group difference vs placebo, median % change from baseline” value ([1]; Year 4) was −12.0%, the “Non-HDL-C between group difference vs placebo, median absolute change from baseline” value ([1]; Year 4) was -14.0 mg/dL and the “Triglycerides between group difference vs placebo, median absolute change from baseline” value ([1]; Year 4) was -38.0 mg/dL. For the same compound, the “HDL-C between group difference vs placebo, median % change from baseline” value ([1]; Year 5) was −3.0%, the “HDL-C between group difference vs placebo, median absolute change from baseline” value ([1]; Year 5) was -1.5 mg/dL and the “LDL-C Hopkins between group difference vs placebo, median % change from baseline” value ([1]; Year 5) was −8.0%. For the same compound, the “LDL-C Hopkins between group difference vs placebo, median absolute change from baseline” value ([1]; Year 5) was -6.6 mg/dL, the “Non-HDL-C between group difference vs placebo, median % change from baseline” value ([1]; Year 5) was −9.9% and the “Non-HDL-C between group difference vs placebo, median absolute change from baseline” value ([1]; Year 5) was -11.0 mg/dL. For the same compound, the “Triglycerides: median reduction from baseline greater than in placebo group (Hodges-Lehmann)” value ([1]; baseline to one year) was 19.7%, the “Total key secondary endpoint: HR vs placebo” value ([2]; primary prevention stratum) was 0.71 and the “Total primary endpoint events: HR vs placebo” value ([2]; primary prevention stratum, adjusted stratification) was 0.79. For the same compound, the “Total primary endpoint events: HR vs placebo” value ([2]; primary prevention stratum, without adjusting for stratification differences) was 0.86, the “Total key secondary endpoint events: HR vs placebo” value ([2]; primary prevention) was 0.78 and the “Total key secondary endpoint: HR vs placebo” value ([2]; secondary prevention stratum) was 0.70. For the same compound, the “Total primary endpoint events: HR vs placebo” value ([2]; secondary prevention stratum, adjusted stratification) was 0.66, the “Total primary endpoint events: HR vs placebo” value ([2]; secondary prevention stratum, without adjusting for stratification differences) was 0.65 and the “Total key secondary endpoint events: HR vs placebo” value ([2]; secondary prevention stratum) was 0.69.
